Usually IC50 stands for the concentration needed to halve the response being measured.

Test [1] has as its target T1, FLT3 (Homo sapiens, UniProt P36888).
T1 sequence (P36888 27-993): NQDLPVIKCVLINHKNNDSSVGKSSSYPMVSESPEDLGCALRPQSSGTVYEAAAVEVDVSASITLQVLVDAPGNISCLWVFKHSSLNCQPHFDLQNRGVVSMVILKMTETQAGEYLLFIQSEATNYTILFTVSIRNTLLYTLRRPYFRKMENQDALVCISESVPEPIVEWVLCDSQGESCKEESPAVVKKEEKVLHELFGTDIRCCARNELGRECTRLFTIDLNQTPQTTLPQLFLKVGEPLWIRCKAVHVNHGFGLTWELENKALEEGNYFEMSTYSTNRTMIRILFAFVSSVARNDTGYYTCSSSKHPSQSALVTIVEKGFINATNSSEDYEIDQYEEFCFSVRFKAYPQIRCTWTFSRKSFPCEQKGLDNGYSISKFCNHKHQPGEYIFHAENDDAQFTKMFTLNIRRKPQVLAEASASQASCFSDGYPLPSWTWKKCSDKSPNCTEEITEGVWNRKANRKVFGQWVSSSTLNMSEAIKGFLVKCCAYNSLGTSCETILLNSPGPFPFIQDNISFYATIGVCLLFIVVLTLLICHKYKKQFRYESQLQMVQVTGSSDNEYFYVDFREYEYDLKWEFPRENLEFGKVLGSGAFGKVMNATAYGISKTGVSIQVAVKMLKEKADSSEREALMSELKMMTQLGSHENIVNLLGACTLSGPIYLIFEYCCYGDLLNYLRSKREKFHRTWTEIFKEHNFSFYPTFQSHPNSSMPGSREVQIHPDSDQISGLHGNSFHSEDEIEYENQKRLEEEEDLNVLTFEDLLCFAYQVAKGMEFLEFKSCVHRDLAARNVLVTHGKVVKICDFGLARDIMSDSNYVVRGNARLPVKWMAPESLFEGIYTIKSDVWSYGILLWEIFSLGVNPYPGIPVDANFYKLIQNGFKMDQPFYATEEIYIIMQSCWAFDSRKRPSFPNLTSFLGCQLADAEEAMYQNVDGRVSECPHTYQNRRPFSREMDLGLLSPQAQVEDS
The test can be described thus: TR-FRET kinase activity assay, FLT3. The format is biochemical. To be noted: ATP at Km, 60 minutes. In outline: (§1)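 IC50 came from TR-FRET signal after 30 min dark development with a Europium-labeled phospho-specific antibody. This followed a 60 min RT reaction, stopped with EDTA, started with ATP at Km per enzyme. Peptide substrate, enzyme and compound were premixed in HEPES pH 7.5 buffer with MgCl2, EGTA, Brij 35 and DTT.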
A general note: TR-FRET usually uses a lanthanide donor and a delayed reading to cut background.

Test [2] concerns the target T2, MERTK (Homo sapiens, UniProt Q12866).
T2 sequence (Q12866 21-999): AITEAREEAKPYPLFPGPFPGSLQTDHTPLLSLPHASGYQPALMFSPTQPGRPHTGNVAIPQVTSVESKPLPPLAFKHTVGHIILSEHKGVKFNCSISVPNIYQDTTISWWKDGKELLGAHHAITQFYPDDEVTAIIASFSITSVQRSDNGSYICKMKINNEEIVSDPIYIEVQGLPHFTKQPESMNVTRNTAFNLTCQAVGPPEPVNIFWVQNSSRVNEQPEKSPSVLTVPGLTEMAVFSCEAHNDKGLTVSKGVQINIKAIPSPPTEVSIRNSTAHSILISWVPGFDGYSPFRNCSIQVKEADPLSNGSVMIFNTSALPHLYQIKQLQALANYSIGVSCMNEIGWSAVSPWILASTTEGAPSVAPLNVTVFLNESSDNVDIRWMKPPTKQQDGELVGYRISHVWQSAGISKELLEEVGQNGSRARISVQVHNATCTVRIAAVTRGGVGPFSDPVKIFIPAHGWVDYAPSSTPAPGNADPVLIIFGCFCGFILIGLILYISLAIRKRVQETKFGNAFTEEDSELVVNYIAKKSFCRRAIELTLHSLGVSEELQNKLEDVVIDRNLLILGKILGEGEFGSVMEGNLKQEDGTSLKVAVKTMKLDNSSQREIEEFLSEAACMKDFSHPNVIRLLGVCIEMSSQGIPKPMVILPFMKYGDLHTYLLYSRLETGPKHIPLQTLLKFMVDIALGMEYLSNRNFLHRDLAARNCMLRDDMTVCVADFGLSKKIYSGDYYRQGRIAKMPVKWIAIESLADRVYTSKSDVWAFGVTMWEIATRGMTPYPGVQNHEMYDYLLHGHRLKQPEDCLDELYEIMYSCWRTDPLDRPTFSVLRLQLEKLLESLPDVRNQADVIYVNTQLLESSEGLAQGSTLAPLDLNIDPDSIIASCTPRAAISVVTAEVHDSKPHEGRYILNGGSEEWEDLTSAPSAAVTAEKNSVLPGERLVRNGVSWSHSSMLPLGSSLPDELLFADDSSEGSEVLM
The test is described as follows: TR-FRET kinase activity assay, MERTK. The test is classed as biochemical. To be noted: for IC50: TR-FRET activity assay, ATP at Km, 60 minutes, read-out: Mer IC50; for Mer/Flt3 ratio (FLT3 IC50/Mer IC50): ratio calculated as FLT3 IC50/Mer IC50. In outline: as §1

Where only a bound is given, the exact number is not on record here.

Consider `Cc1nccc(N2CCC(Oc3ncc([C@H]4CC[C@H](O)CC4)c4nc(N[C@@H](C)CC(F)(F)F)ncc34)CC2)n1` [Compound 375], for which, in test [1], the IC50 was 100 to 1000 nM. Further, in test [2], the IC50 is at most 100 nM and the “Mer/Flt3 ratio (FLT3 IC50/Mer IC50)” value is recorded as “+++ (a ratio of >100)”.

In turn, `COCCN1C(C)(C)CC(Oc2ncc([C@H]3CC[C@H](O)CC3)c3nc(N[C@@H](C)CC#N)ncc23)CC1(C)C` [Compound 376] showed a 50% inhibitory concentration (IC50) in test [1] of 1000 to 10000 nM. Further, in test [2], the IC50 is at most 100 nM and the “Mer/Flt3 ratio (FLT3 IC50/Mer IC50)” value was “+++ (a ratio of >100)”.

In turn, `COCC(=O)N1C(C)(C)CC(Oc2ncc([C@H]3CC[C@H](O)CC3)c3nc(N[C@@H](C)CC(F)(F)F)ncc23)CC1(C)C` [Compound 377] returned an IC50 in test [1] of 1000 to 10000 nM. In test [2], the IC50 was at most 100 nM and the “Mer/Flt3 ratio (FLT3 IC50/Mer IC50)” value is “+++ (a ratio of >100)”.

As to `C[C@@H](CC(F)(F)F)Nc1ncc2c(OC3CCN([C@@H]4CCOC4)CC3)ncc([C@H]3CC[C@H](O)CC3)c2n1` [Compound 378], the results for the IC50 in test [1] and in test [2] were 1000 to 10000 nM and at most 100 nM, respectively. In addition, in test [2], the “Mer/Flt3 ratio (FLT3 IC50/Mer IC50)” value is listed as “+++ (a ratio of >100)”.

The compound `COCCN1C(C)(C)CC(Oc2ncc([C@H]3CC[C@H](O)CC3)c3nc(NC4(C)CC4)ncc23)CC1(C)C` [Compound 379] showed an IC50 in test [1] of 100 to 1000 nM. Besides, in test [2], the IC50 is at most 100 nM and the “Mer/Flt3 ratio (FLT3 IC50/Mer IC50)” value is given as “+++ (a ratio of >100)”.

Consider `COCCN1C(C)(C)CC(Oc2ncc([C@H]3CC[C@H](O)CC3)c3nc(N[C@@H](C)CCO)ncc23)CC1(C)C` [Compound 380], for which the results for the IC50 in test [1] and in test [2] were 1000 to 10000 nM and at most 100 nM, respectively. Also, the “Mer/Flt3 ratio (FLT3 IC50/Mer IC50)” value in test [2] is listed as “+++ (a ratio of >100)”.

Turning to `COCCN1C(C)(C)CC(Oc2ncc([C@H]3CC[C@H](O)CC3)c3nc(N[C@@H](C)CF)ncc23)CC1(C)C` [Compound 381], the IC50 in test [1] lay within 1000 to 10000 nM. Also, in test [2], the IC50 was at most 100 nM and the “Mer/Flt3 ratio (FLT3 IC50/Mer IC50)” value was “+++ (a ratio of >100)”.

For `C[C@@H](CF)Nc1ncc2c(OC3CC(C)(C)N(C)C(C)(C)C3)ncc([C@H]3CC[C@H](O)CC3)c2n1` [Compound 382], the 50% inhibitory concentration (IC50) in test [1] fell in the range of 1000 to 10000 nM. Further, in test [2], the IC50 is at most 100 nM and the “Mer/Flt3 ratio (FLT3 IC50/Mer IC50)” value is on record as “+++ (a ratio of >100)”.

Turning to `C[C@@H](CC(F)(F)F)Nc1ncc2c(OC3CCN([C@H]4CCOC4)CC3)ncc([C@H]3CC[C@H](O)CC3)c2n1` [Compound 383], the IC50 in test [1] is 1000 to 10000 nM; in test [2] it was at most 100 nM. In addition, the “Mer/Flt3 ratio (FLT3 IC50/Mer IC50)” value in test [2] is “+++ (a ratio of >100)”.

Turning to `COC[C@H](C)Nc1ncc2c(O[C@H]3CCN(C)C(C)(C)C3)ncc([C@H]3CC[C@H](O)CC3)c2n1` [Compound 384], the IC50 in test [1] lay within 1000 to 10000 nM. In test [2], the IC50 is at most 100 nM and the “Mer/Flt3 ratio (FLT3 IC50/Mer IC50)” value was “+++ (a ratio of >100)”.

`COC[C@H](C)Nc1ncc2c(O[C@@H]3CCN(C)C(C)(C)C3)ncc([C@H]3CC[C@H](O)CC3)c2n1` [Compound 385] displayed an IC50 in test [1] of 1000 to 10000 nM. For the same compound, in test [2], the IC50 is at most 100 nM and the “Mer/Flt3 ratio (FLT3 IC50/Mer IC50)” value is on record as “+++ (a ratio of >100)”.

As for `C[C@@H](CC(F)(F)F)Nc1ncc2c(OC3CC(C)(C)N(C)C(C)(C)C3)ncc([C@H]3CC[C@H](O)CC3)c2n1` [Compound 386], the IC50 in test [1] was 100 to 1000 nM; in test [2], at most 100 nM. In addition, in test [2], the “Mer/Flt3 ratio (FLT3 IC50/Mer IC50)” value was “+++ (a ratio of >100)”.

With `COC[C@H](C)Nc1ncc2c(OC3C[C@H](C)N(C)[C@@H](C)C3)ncc([C@H]3CC[C@H](O)CC3)c2n1` (stereo partly drawn) [Compound 387], the IC50 in test [1] was 1000 to 10000 nM; in test [2] it was at most 100 nM. Further, in test [2], the “Mer/Flt3 ratio (FLT3 IC50/Mer IC50)” value is “+++ (a ratio of >100)”.

In test [1], `COC[C@H](C)Nc1ncc2c(OC3C[C@@H](C)N(C)[C@H](C)C3)ncc([C@H]3CC[C@H](O)CC3)c2n1` (stereo partly drawn) [Compound 388] yielded an IC50 of 1000 to 10000 nM. Moreover, in test [2], the IC50 was at most 100 nM and the “Mer/Flt3 ratio (FLT3 IC50/Mer IC50)” value is reported as “+++ (a ratio of >100)”.
